Assay results taken from patent publication US20070129344A1, “Bicyclic 6-alkylidene-penem beta-lactamase inhibitors and beta-lactam antibiotic combination: a broad spectrum antibiotic” (priority 2005, published 2007).

Columns and labels:
Type in all cases: cell-based
[1] = test system: K. pneumoniae GC 7821 DHA 1; test: MIC microbroth dilution; β-lactamase class C; details: K. pneumoniae GC 7821; Cefepime + 4 ug/ml Compound 1
Procedure: (§1) The in vitro activities of the antibiotics were determined by the microbroth dilution method as recommended by the National Committee for Clinical Laboratory Standards (NCCLS). (NCCLS. 2000. Methods for Dilution Antimicrobial Susceptibility Tests for Bacteria That Grow Aerobically; Approved Standards: M7-A5, vol. 19. National Committee for Clinical Laboratory Standards, Villanova, Pa.). Mueller-Hinton II broth (MHBII)(BBL Cockeysville, Md.), was used for the testing procedure. […]. The plates were incubated for 18-22 hours at 35° C. in ambient air.

[2] = test system: E. cloacae PT 967 Inducible AmpC; test: MIC microbroth dilution; β-lactamase class C; details: Cefepime + 4 ug/ml Compound 1
Procedure: as §1

[3] = test system: K. pneumoniae GC 7824 Fox 5; test: MIC microbroth dilution; β-lactamase class C; details: Cefepime + 4 ug/ml Compound 1
Procedure: as §1

[4] = test system: K. pneumoniae GC 7822 Act 1; test: MIC microbroth dilution; β-lactamase class C; details: Cefepime + 4 ug/ml Compound 1
Procedure: as §1

[5] = test system: A. baumannii GC 7684 AmpC, AmpC; test: MIC microbroth dilution; β-lactamase class C; details: Cefepime + 4 ug/ml Compound 1
Procedure: as §1

[6] = test system: C. freundii GC 4164 Inducible AmpC; test: MIC microbroth dilution; β-lactamase class C; details: Cefepime + 4 ug/ml Compound 1
Procedure: as §1

[7] = test system: P. aeruginosa GC 3153 Inducible AmpC; test: MIC microbroth dilution; β-lactamase class C; details: Cefepime + 4 ug/ml Compound 1
Procedure: as §1

E. cloacae GC 1475 (P99) = test: MIC microbroth dilution; β-lactamase class C; details: Cefepime + 4 ug/ml Compound 1
Procedure: as §1

[8] = test system: P. aeruginosa GC 1763 AmpC-inducible; test: MIC microbroth dilution; β-lactamase class C; details: Cefepime + 4 ug/ml Compound 1
Procedure: as §1

[9] = test system: S. marcescens PT 696 Inducible AmpC; test: MIC microbroth dilution; β-lactamase class C; details: Cefepime + 4 ug/ml Compound 1
Procedure: as §1

[10] = test system: P. aeruginosa ATCC 27853 AmpC-inducable; test: MIC microbroth dilution; β-lactamase class C; details: Cefepime + 4 ug/ml Compound 1
Procedure: as §1

[11] = test system: K. pneumoniae GC 7820 Act 1; test: MIC microbroth dilution; β-lactamase class C; details: K. pneumoniae GC 7820; Cefepime + 4 ug/ml Compound 1
Procedure: as §1

[12] = test system: S. marcescens GC 4132 (AmpC); test: MIC microbroth dilution; β-lactamase class C; details: Cefepime + 4 ug/ml Compound 1
Procedure: as §1

[13] = test system: E. cloacae PT 1494 Inducible AmpC; test: MIC microbroth dilution; β-lactamase class C; details: Cefepime + 4 ug/ml Compound 1
Procedure: as §1

[14] = test system: E. aerogenes 1697-MP GC 7845 AmpC; test: MIC microbroth dilution; β-lactamase class C; details: E. aerogenes GC 7845; Cefepime + 4 ug/ml Compound 1
Procedure: as §1

[15] = test system: K. pneumoniae GC 7823 Fox 5; test: MIC microbroth dilution; β-lactamase class C; details: K. pneumoniae GC 7823; Cefepime + 4 ug/ml Compound 1
Procedure: as §1

E. coli GC 6539 CMY-2 = test: MIC microbroth dilution; β-lactamase class C; details: Cefepime + 4 ug/ml Compound 1
Procedure: as §1

[16] = test system: E. cloacae GC 1477 (AmpC); test: MIC microbroth dilution; β-lactamase class C; details: Cefepime + 4 ug/ml Compound 1
Procedure: as §1

[17] = test system: E. cloacae GC 4142 (AmpC); test: MIC microbroth dilution; β-lactamase class C; details: Cefepime + 4 ug/ml Compound 1
Procedure: as §1

[18] = test system: E. cloacae GC 1712 AmpC-inducible; test: MIC microbroth dilution; β-lactamase class C; details: Cefepime + 4 ug/ml Compound 1
Procedure: as §1

[19] = test system: P. aeruginosa GC 1764 (AmpC); test: MIC microbroth dilution; β-lactamase class C; details: Cefepime + 4 ug/ml Compound 1
Procedure: as §1

[20] = test system: S. marcescens GC 4145 Inducible AmpC; test: MIC microbroth dilution; β-lactamase class C; details: Cefepime + 4 ug/ml Compound 1
Procedure: as §1

[21] = test system: E. cloacae GC 6991 (AmpC); test: MIC microbroth dilution; β-lactamase class C; details: Cefepime + 4 ug/ml Compound 1
Procedure: as §1

E. coli GC 2894 (AmpC) = test: MIC microbroth dilution; β-lactamase class C; details: Cefepime + 4 ug/ml Compound 1
Procedure: as §1

[22] = test system: A. baumannii GC 7687 AmpC; test: MIC microbroth dilution; β-lactamase class C; details: Cefepime + 4 ug/ml Compound 1
Procedure: as §1

[23] = test system: S. marcescens GC 1781 (Sme-1 + AmpC); test: MIC microbroth dilution; β-lactamase class A (Cb'ase), C; details: Cefepime + 4 ug/ml Compound 1
Procedure: as §1

[24] = test system: K. pneumoniae GC 7635 SHV-1, KPC2; test: MIC microbroth dilution; β-lactamase class A, A (Cb'ase); details: Cefepime + 4 ug/ml Compound 1
Procedure: as §1

E. coli GC 1480 OXA-1 = test: MIC microbroth dilution; β-lactamase class D; details: E. coli GC 1480; Cefepime + 4 ug/ml Compound 1
Procedure: as §1

E. coli GC 1807 OXA-7 = test: MIC microbroth dilution; β-lactamase class D; details: E. coli GC 1807; Cefepime + 4 ug/ml Compound 1
Procedure: as §1

[25] = test system: E. cloacae GC 7065 TEM-26, SHV-12 Amp C inducable; test: MIC microbroth dilution; β-lactamase class A (ESBL), C; details: Cefepime + 4 ug/ml Compound 1
Procedure: as §1

[26] = test system: M. morganii GC 1617 TEM-10 + inducible AmpC; test: as above; details: Cefepime + 4 ug/ml Compound 1
Procedure: as §1

[27] = test system: E. aerogenes GC 7036 TEM-24, Amp C inducable; test: as above; details: Cefepime + 4 ug/ml Compound 1
Procedure: as §1

[28] = test system: E. cloacae GC 7052 SHV-5, Amp C inducable; test: as above; details: Cefepime + 4 ug/ml Compound 1
Procedure: as §1

[29] = test system: E. aerogenes GC 7039 TEM-4, Amp C inducable; test: as above; details: Cefepime + 4 ug/ml Compound 1
Procedure: as §1

[30] = test system: E. coli GAR 5929 TEM, OXA, Act-1, CTX (By PCR only); test: MIC microbroth dilution; β-lactamase class A, C, D; details: Cefepime + 4 ug/ml Compound 1
Procedure: as §1

Measured: MIC

O=C([O-])C1=CS[C@@H]2/C(=C\c3cn4c(n3)CCC4)C(=O)N12.[Na+] [Compound 1, (5R), (6Z)-6-(6,7-Dihydro-5H-pyrrolo[1,2-a]imidazol-2-ylmethylene)-7-oxo-4-thia-1-aza-bicyclo[3.2.0]hept-2-ene-2-carboxylic Acid, Sodium Salt]
8 µg/mL: [5] | [7] | [24]
0.03 µg/mL: [1] | [29]
<0.015 µg/mL: E. coli GC 1807 OXA-7
1 µg/mL: [8] | [19] | [28]
0.50 µg/mL: [4] | [21]
16 µg/mL: [22]
0.25 µg/mL: [11] | [16]
2 µg/mL: [10]
0.12 µg/mL: [3] | E. cloacae GC 1475 (P99) | [12] | [15] | [17] | [18] | [20] | [23] | [26]
0.06 µg/mL: all other assays above
